Measurements published in US20260217701A1, “SELECTIVE BET INHIBITORS AND USES THEREOF” (Tay Therapeutics Limited, priority 2022, published 2026).

What was measured:
Assay type in all cases: in vivo, C57BI/6J mice
[1] = system: idiopathic pulmonary fibrosis (bleomycin); assay: Bleomycin IPF model: functional lung volume by micro-CT; parameters: Functional Lung Volume, Mean: unit not given here; conditions: Day 21
Protocol: Animals were acclimated for two weeks prior to study initiation, and were randomized into the experimental groups outlined in Table 32. Intratracheal (IT) administration of Bleo or PBS control was conducted at the start of the study (Day 0). […] Following administration of Bleo, animals (n=10/group) were included in the study if they met the following guidelines on Day 7: […] Micro-CT imaging was also performed on Day 7 to determine relative fibrosis and on Day 21. […] Images were acquired with a respiratory gated technique with the following parameters: X-ray tube voltage: 90 KV; X-ray tube current: 88 μA; total scan time: 4 minutes. The system was calibrated monthly with standard phantoms for noise, uniformity, low contrast, and resolution to ensure consistency.

[2] = Bleomycin IPF model: body weight and mortality; parameters: Mean Body Weight Change: unit not given here; conditions: for Mean Body Weight Change: Bleo + Pirfenidone (300 mg/kg) OG QOD from D7
Protocol: (§1) Male C57BI/6J mice, aged 12 weeks with an approximate weight of 25-30 g were obtained from Jackson Laboratories (Bar Harbor, ME). Animals were acclimated for two weeks prior to study initiation, and were randomized into the experimental groups outlined in Table 32.
(§2) Intratracheal (IT) administration of Bleo or PBS control was conducted at the start of the study (Day 0). […] Animals were weighed on Day 0, and indexed boluses of PBS control (Group 1) or Bleo (Groups 2-6) were delivered by IT administration.
Following administration of Bleo, animals (n=10/group) were included in the study if they met the following guidelines on Day 7: (1) a predictable 5% loss in body weight, and (2) the presence of fibrotic pulmonary lesions, detected by micro-CT imaging. 10 animals from Group 1 additionally proceeded as controls. Animals that continued in the study on Day 7 received an oral gavage (OG) administration of PBS, Compound A (1 mg/kg, 3 mg/kg, 10 mg/kg), or Pirfenidone (300 mg/kg), as outlined in Table 31 in 25 μL boluses every other day (QOD), starting on Day 7. Compound A was formulated in 5% (v/v) DMSO/15% (v/v) PEG 400/80% (v/v) E-TPGS in purified water. […]

[3] = system: idiopathic pulmonary fibrosis (bleomycin); assay: Bleomycin IPF model: lung histology, Masson's Trichrome with Ashcroft scoring
Protocol: Animals were acclimated for two weeks prior to study initiation, and were randomized into the experimental groups outlined in Table 32. Intratracheal (IT) administration of Bleo or PBS control was conducted at the start of the study (Day 0). […] Following administration of Bleo, animals (n=10/group) were included in the study if they met the following guidelines on Day 7: […] A resection of the right lung was weighed and homogenized to determine total hydroxyproline levels by colorimetric assay, and the remaining lung lysate was saved for future analyses. For the morphological assessments, the left lung was inflation-fixed at 25 cm of water pressure with 4% paraformaldehyde in PBS for 1 minute, processed, and then sectioned. Morphological analysis of the lung was conducted using H&E-stained slides. Additional histologic stains for morphological analyses included Masson's Trichrome staining with Ashcroft scoring to determine severity of fibrosis.

hydroxyproline = assay: Bleomycin IPF model: hydroxyproline content in lung lysates; parameters: Hydroxyproline Levels, Mean: unit not given here; conditions: Bleo + Pirfenidone (300 mg/kg) OG QOD from D7
Protocol: as §1, §2
(§3) Following administration of Bleo, animals (n=10/group) were included in the study if they met the following guidelines on Day 7: (1) a predictable 5% loss in body weight, and (2) the presence of fibrotic pulmonary lesions, detected by micro-CT imaging. 10 animals from Group 1 additionally proceeded as controls. Animals that continued in the study on Day 7 received an oral gavage (OG) administration of PBS, Compound A (1 mg/kg, 3 mg/kg, 10 mg/kg), or Pirfenidone (300 mg/kg), as outlined in Table 31 in 25 μL boluses every other day (QOD), starting on Day 7. Compound A was formulated in 5% (v/v) DMSO/15% (v/v) PEG 400/80% (v/v) E-TPGS in purified water.
Animals were euthanized on Day 21 following Micro-CT imaging, and the right lung was collected for biochemical analysis, and the left lung was inflation-fixed for morphological assessments. A resection of the right lung was weighed and homogenized to determine total hydroxyproline levels by colorimetric assay, and the remaining lung lysate was saved for future analyses.

[4] = system: idiopathic pulmonary fibrosis (bleomycin); assay: Bleomycin IPF model: oxygen saturation (pulse oximetry); conditions: Bleo + Pirfenidone (300 mg/kg) OG QOD from D7
Protocol: as §1, §2, §3
Body weights were obtained at Day 0 at the start of the study, and again at Day 7 to determine if an animal continued in the study. Body weight was measured daily from Day 7 until Day 21, and oxygen saturation was measured by a pulse oximetry (MouseOx) system QOD from Day 7 until study completion on Day 21, and results were plotted and analyzed by Kaplan-Meier plots.

[5] = Bleo + Pirfenidone (300 mg/kg) OG QOD from D7

In the case of Cc1ccc(=O)n(-c2ccccc2)c1 [Pirfenidone, reference compound], the “Functional Lung Volume, Mean” value [1, 5] is reported as 445.7025, the “Functional lung volume relative to Group 2” value ([1]; Group 6, Pirfenidone 300 mg/kg) is reported as “significantly increased” and the “Mean Body Weight Change” value ([2]; Day 1) is reported as 2.308. For the same compound, the “Mean Body Weight Change” value ([2]; Day 2) was −0.484, the “Mean Body Weight Change” value ([2]; Day 3) was 0.051 and the “Mean Body Weight Change” value ([2]; Day 4) was 4.604. For the same compound, the “Mean Body Weight Change” value ([2]; Day 5) was −5.992, the “Mean Body Weight Change” value ([2]; Day 6) was −9.221 and the “Mean Body Weight Change” value ([2]; Day 7) was −11.372. The “Mean Body Weight Change” value ([2]; Day 8) was −14.446, the “Mean Body Weight Change” value ([2]; Day 9) was −14.694 and the “Mean Body Weight Change” value ([2]; Day 10) was −15.574. The “Mean Body Weight Change” value ([2]; Day 11) was −14.209, the “Mean Body Weight Change” value ([2]; Day 12) was −13.437 and the “Mean Body Weight Change” value ([2]; Day 13) was −12.258. For the same compound, the “Mean Body Weight Change” value ([2]; Day 14) was −12.644, the “Mean Body Weight Change” value ([2]; Day 15) was −13.627 and the “Mean Body Weight Change” value ([2]; Day 16) was −13.391. The “Mean Body Weight Change” value ([2]; Day 17) was −13.251, the “Mean Body Weight Change” value ([2]; Day 18) was −15.138 and the “Mean Body Weight Change” value ([2]; Day 19) was −14.921. The “Mean Body Weight Change” value ([2]; Day 20) was −15.674, the “Mean Body Weight Change” value ([2]; Day 21) was −15.557 and the “Body weight compared with Bleo+Saline treated animals” value ([2]; Compound A (all doses tested), Pirfenidone (300 mg/kg)) was “No significant difference”. The “Ashcroft Scoring, Max” value [3, 5] was 6, the “Ashcroft Scoring, Mean” value [3, 5] was 5.125 and the “Ashcroft Scoring, Min” value [3, 5] was 4. For the same compound, the “Ashcroft scores relative to IPF control group” value ([3]; Day 21, Group 6, 300 mg/kg) was “significantly reduced Ashcroft scores”, the “Fibrosis in lung tissue (Masson's Trichrome) compared to Group 2 (Bleo+Saline)” value ([3]; Group 5 (Compound A 10) and Group 6 (Pirfenidone)) was “qualitatively diminished” and the “Hydroxyproline Levels, Mean” value (hydroxyproline) was 0.055. The “Mean Oxygen Saturation” value ([4]; Day 7) was 81.08, the “Mean Oxygen Saturation” value ([4]; Day 9) was 84.55 and the “Mean Oxygen Saturation” value ([4]; Day 11) was 83.32. The “Mean Oxygen Saturation” value ([4]; Day 13) was 84.28, the “Mean Oxygen Saturation” value ([4]; Day 15) was 87.03 and the “Mean Oxygen Saturation” value ([4]; Day 17) was 87.08. The “Mean Oxygen Saturation” value ([4]; Day 19) was 89.13 and the “Mean Oxygen Saturation” value ([4]; Day 21) was 89.18.
